US5883074A, “Potentiators of antibacterial agents” (priority 1995, dated 1999)

Tests used:
MRSA [1] = assay: Potentiation screening assay: methicillin MIC reduction in MRSA; assay type: cell-based, Staphylococcus aureus; details: 0, 5, and 10 μg/ml test compound
Protocol: After regrowth at 35° C. to an OD600 of 0.2-0.4 (1-2 hrs.), the cells are diluted 1/1000 in MHB. […] The plate is placed in a humidified 35° C. incubator for 5-24 hours, and cell growth or inhibition is read as turbidity (OD600). Two positive and one negative controls for growth are cells grown MHB, cells grown in MHB plus 20 μg/ml methicillin alone (without test compound), and uninoculated MHB respectively.
Compounds which meet the first two criteria for follow-up are evaluated in a standard microdilution assessment of the MIC with methicillin for MRSA. (see Lorian, Antibiotics in Laboratory Medicine, 3rd ed., pp. 72-75 (1991).) In order to be carried further, the MIC of methicillin preferably is reduced in the presence of the potentiator to at most twice the MIC of a susceptible strain for methicillin.
MICs for the compounds were determined in the presence of 0, 5, and 10 μg/ml of each compound. MRSA cells were grown in the presence of 0, 5, and 10 μg/ml test compound and concentrations of methicillin obtained from serial two-fold dilutions starting at 1024 μg/ml to 0.002 μg/ml (This range can be extended or refined as appropriate.) as follows: A fresh inoculum of MRSA cells was grown at 35° C. in Mueller-Hinton Broth (MHB) overnight and then diluted 1/50 in the same medium. After regrowth at 35° C. to an OD600 of 0.2-0.4 (1-2 hrs.), the cells were diluted 1/1000 in MHB. […] The plate was placed in a humidified 35° C. incubator for 24 hours, and cell growth or inhibition was read as turbidity (OD600).

MRSA [2] = assay: Specificity: intrinsic antibacterial activity without antibacterial agent; assay type: cell-based, Staphylococcus aureus; details: test compound alone, without methicillin
Protocol: In order to ascertain that the test compound is not primarily responsible for inhibition of growth, MRSA cells are grown in the presence of 5 μg/ml test compound as follows: A fresh inoculum of MRSA cells is grown at 35° C. in Mueller-Hinton Broth (MHB) overnight and then diluted 1/50 in the same medium. After regrowth at 35° C. to an OD600 of 0.2-0.4 (1-2 hrs.), the cells are diluted 1/1000 in MHB. In a microtiter plate, 50 μl of this diluted culture is combined with 50 μl MHB containing 10 μg/ml test compound to give starting growth conditions of 5×10^5 cfu/ml in MHB, with 5 μg/ml test compound. The plate is placed in a humidified 35° C. incubator for 5-24 hours, and cell growth or inhibition is read as turbidity (OD600). To be carried forward to the next step of the potentiator screening assay, the test compound should have little or no intrinsic anti-staphylococcal activity (growth should be at least 75% of the growth of the positive control without methicillin, corrected for background), or that activity should be explicable without indicating the probability of human toxicity.

Row | Compound | effect on the MIC for methicillin (MRSA [1]) | intrinsic antimicrobial activity (MRSA [2])
1 | 4a, 5-epoxy-3-oxo-14H-4,6a,9,9-4mephenanthro (2,3-D)(1,3)dioxole-4-propionic acid | little or no effect on the MIC for methicillin | 
2 | 10a, 12a dimethyl 1-8-hydroxy-tetradecahydrochrysene | reduce the MIC for methicillin | not exhibiting intrinsic antimicrobial activity
3 | CC1(C)CCCC2(C)C1CCC1(C)OC(=O)CC12 (single isomer, unassigned) [(3aR) -(+) -sclareolide] | little or no effect on the MIC for methicillin | 
4 | C[C@@]12CCC[C@H]1[C@@H]1CC[C@H]3C[C@@H](O)CC[C@]3(C)[C@H]1CC2 [5-α-androstan-3β-ol] | reduce the MIC for methicillin | not exhibiting intrinsic antimicrobial activity
5 | C[C@@]12CCC[C@H]1[C@@H]1CC[C@@H]3C[C@H](O)CC[C@]3(C)[C@H]1CC2 [5β-androstan-3-α-ol] | reduce the MIC for methicillin | not exhibiting intrinsic antimicrobial activity
6 | C[C@@]12CCC[C@H]1[C@@H]1CC[C@@H]3C[C@@H](O)CC[C@]3(C)[C@H]1CC2 [5β-androstan-3β-ol] | reduce the MIC for methicillin | not exhibiting intrinsic antimicrobial activity
7 | COc1cc2c(cc1OC)C(=O)CCC2 [6,7-dimethoxy-1-tetralone] | little or no effect on the MIC for methicillin | 
8 | COc1ccc2c(c1)CCCC2 [6-methoxy-1,2,3,4-tetrahydronaphthalene] | little or no effect on the MIC for methicillin | 
9 | COc1ccc2c(c1)CCCC2=O [6-methoxy-1-tetralone] | little or no effect on the MIC for methicillin | 
10 | C=C1CC[C@@H]2[C@](C)(CO)[C@H](O)CC[C@@]2(C)[C@@H]1C/C=C1/C(=O)OC[C@H]1O [andrographolide] | little or no effect on the MIC for methicillin | 
11 | COc1ccc2c(c1)[C@]13CCCC[C@@H]1[C@H](C2)N(C)CC3 [dextromethorphan] | little or no effect on the MIC for methicillin | 
12 | C[C@]12CC[C@H](O)C[C@@H]1CC[C@@H]1[C@@H]2CC[C@]2(C)C(=O)CC[C@@H]12 [epiandrosterone] | little or no effect on the MIC for methicillin | 
13 | C=C1CC[C@H](O)C/C1=C/C=C1\CCC[C@]2(C)[C@@H]([C@H](C)/C=C/[C@H](C)C(C)C)CC[C@@H]12 [ergocalciferol] | little or no effect on the MIC for methicillin | 
14 | COC(=O)C1(C)CCCC2(C)c3cc(OC)ccc3CCC12 (stereo not drawn) [methyl o-methyl-podocarpate] | little or no effect on the MIC for methicillin | 
15 | C[C@H]1[C@H](C)CC[C@]2(CO)CC[C@]3(C)C(=CC[C@@H]4[C@@]5(C)CC[C@H](O)C(C)(C)[C@@H]5CC[C@]43C)[C@H]12 [uvaol] | reduce the MIC for methicillin | not exhibiting intrinsic antimicrobial activity
16 | C[C@]12CC[C@@H]3c4ccc(O)cc4CC[C@H]3[C@@H]1CC[C@H]2O [α-estradiol] | little or no effect on the MIC for methicillin | 
17 | COc1ccc2c(c1)CC[C@@H]1[C@@H]2CC[C@]2(C)[C@@H](O)CC[C@@H]12 [β-estradiol-3-methyl ether] | reduce the MIC for methicillin | not exhibiting intrinsic antimicrobial activity
18 | C[C@]12CC[C@@H]3c4ccc(O)cc4CC[C@H]3[C@@H]1CC[C@@H]2O [β-estradiol] | little or no effect on the MIC for methicillin | 
